Biological target: T1, HCMV polymerase (Human cytomegalovirus, UniProt P08546)
T1 construct: made in house; host or cells: SF-9 insect cells infected with recombinant baculovirus
Assay: HCMV polymerase assay (scintillation proximity assay)
Type: biochemical
Settings: percentage of inhibition at 25 μM concentration in CMV polymerase assay
In short: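 Baculovirus/SF-9-expressed HCMV polymerase in 5.4 mM HEPES pH 7.5, 11.7 mM KCl, 4.5 mM MgCl2, 0.36 mg/ml BSA, 90 nM 3H-dTTP, with or without 2 mM CHAPS. Started with 6 nM biotinylated poly(dA)-oligo(dT), 30 min at 25 or 37 °C, EDTA-stopped, read by streptavidin-SPA counting; % inhibition at 25 μM.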

T1 sequence (P08546 whole entry): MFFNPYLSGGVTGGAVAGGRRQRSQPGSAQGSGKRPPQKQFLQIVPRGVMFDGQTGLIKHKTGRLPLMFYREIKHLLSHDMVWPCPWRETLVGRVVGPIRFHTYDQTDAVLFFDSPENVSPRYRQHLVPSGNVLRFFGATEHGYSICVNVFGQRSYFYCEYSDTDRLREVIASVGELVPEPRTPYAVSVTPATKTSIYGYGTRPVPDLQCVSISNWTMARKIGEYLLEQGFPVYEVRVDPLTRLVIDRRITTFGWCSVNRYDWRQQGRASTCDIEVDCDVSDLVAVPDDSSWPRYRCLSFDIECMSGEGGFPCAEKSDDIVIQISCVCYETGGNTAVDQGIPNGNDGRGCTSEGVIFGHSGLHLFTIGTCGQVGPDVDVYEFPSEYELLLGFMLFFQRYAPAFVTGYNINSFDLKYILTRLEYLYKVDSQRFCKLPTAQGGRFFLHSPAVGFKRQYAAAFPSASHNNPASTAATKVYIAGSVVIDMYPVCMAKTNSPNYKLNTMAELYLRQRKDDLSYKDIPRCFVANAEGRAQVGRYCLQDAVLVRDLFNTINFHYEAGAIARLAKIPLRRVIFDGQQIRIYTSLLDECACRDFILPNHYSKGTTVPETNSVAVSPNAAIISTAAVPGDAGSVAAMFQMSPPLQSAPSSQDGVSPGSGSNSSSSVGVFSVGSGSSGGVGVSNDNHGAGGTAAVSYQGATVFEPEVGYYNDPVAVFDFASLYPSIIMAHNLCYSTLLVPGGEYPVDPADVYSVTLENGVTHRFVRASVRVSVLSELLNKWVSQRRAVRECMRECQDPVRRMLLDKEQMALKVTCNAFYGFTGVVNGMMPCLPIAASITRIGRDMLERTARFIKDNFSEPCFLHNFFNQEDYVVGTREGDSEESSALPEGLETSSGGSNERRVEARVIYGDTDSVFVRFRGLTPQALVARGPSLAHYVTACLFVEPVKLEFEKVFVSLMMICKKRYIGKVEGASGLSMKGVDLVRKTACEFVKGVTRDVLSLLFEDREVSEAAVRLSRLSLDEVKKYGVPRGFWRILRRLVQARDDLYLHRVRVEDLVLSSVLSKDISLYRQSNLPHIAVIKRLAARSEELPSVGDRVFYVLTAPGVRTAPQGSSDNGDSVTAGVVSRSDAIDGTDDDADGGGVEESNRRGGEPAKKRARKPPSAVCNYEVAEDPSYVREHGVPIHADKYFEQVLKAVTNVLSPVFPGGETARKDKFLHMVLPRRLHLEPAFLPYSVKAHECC

First: O=C(Nc1nnc(NCCc2cccs2)s1)c1ccc(I)cc1 [compound 430, 4-iodo-N-(5-{[2-(2-thienyl)ethyl]amino}-1,3,4-thiadiazol-2-yl)benzamide]
Second: O=C(Nc1nnc(NCCc2c[nH]cn2)s1)c1ccc(I)cc1 [compound 454, N-(5-{[2-(1H-imidazol-4-yl)ethyl]amino}-1,3,4-thiadiazol-2-yl)-4-iodobenzamide]
The inhibition at 25 µM of the first is higher: 23.1% for the first, 21.2% for the second.

First: CCOc1ccc2ccccc2c1C(=O)Nc1nnc(NCC2CCCCC2)s1 [compound 431, N-{5-[(cyclohexylmethyl)amino]-1,3,4-thiadiazol-2-yl}-2-ethoxy-1-naphthamide]
Second: CCOc1ccc2ccccc2c1C(=O)Nc1nnc(NCC2CCCO2)s1 (stereo not drawn) [compound 450, 2-ethoxy-N-{5-[(tetrahydro-2-furanylmethyl)amino]-1,3,4-thiadiazol-2-yl}-1-naphthamide]
The inhibition at 25 µM of the first is higher: 23.1% for the first, 21.4% for the second.

Compared with `O=C(/C=C/c1ccccc1)Nc1nnc(NCCN2CCCC2)s1` [compound 432, (E)-3-phenyl-N-(5-{[2-(1-pyrrolidinyl)ethyl]amino}-1,3,4-thiadiazol-2-yl)-2-propenamide], `O=C(/C=C/c1ccccc1)Nc1nnc(NC2CC2)s1` [compound 465, (E)-N-[5-(cyclopropylamino)-1,3,4-thiadiazol-2-yl]-3-phenyl-2-propenamide] is lower in inhibition at 25 µM: 23% for the first, 20.2% for the second.

Compared with `O=C(Nc1nnc(NCC2CCCCC2)s1)c1ccc(F)cc1F` [compound 433, N-{5-[(cyclohexylmethyl)amino]-1,3,4-thiadiazol-2-yl}-2,4-difluorobenzamide], `Cc1ccc(C(=O)Nc2nnc(NCC3CCCCC3)s2)cc1` [compound 449, N-{5-[(cyclohexylmethyl)amino]-1,3,4-thiadiazol-2-yl}-4-methylbenzamide] is lower in inhibition at 25 µM: 22.9% for the first, 21.5% for the second.

Compared with `O=C(Nc1nnc(NCCNc2ccccc2)s1)c1ccc(Br)cc1` [compound 434, N-{5-[(2-anilioethyl)amino]-1,3,4-thiadiazol-2-yl}-4-bromobenzamide], `O=C(Nc1nnc(NCCNc2ccccc2)s1)c1c(Cl)cccc1Cl` [compound 438, N-{5-[(2-anilinoethyl)amino]-1,3,4-thiadiazol-2-yl}-2,6-dichlorobenzamide] is lower in inhibition at 25 µM: 22.8% for the first, 22.6% for the second.

Compared with `CC(C)c1cc(C(C)C)c(C(=O)Nc2nnc(NCCC#N)s2)c(C(C)C)c1` [compound 435, N-{5-[(2-cyanoethyl)amino]-1,3,4-thiadiazol-2-yl}-2,4,6-triisopropylbenzamide], `CC(C)c1cc(C(C)C)c(C(=O)Nc2nnc(NCCN(C)C)s2)c(C(C)C)c1` [compound 444, N-(5-{[2-(dimethylamino)ethyl]amino}-1,3,4-thiadiazol-2-yl)-2,4,6-triisopropylbenzamide] is lower in inhibition at 25 µM: 22.8% for the first, 21.9% for the second.

Going from `COc1ccc(CNc2nnc(NC(=O)c3cccc([N+](=O)[O-])c3)s2)cc1OC` [compound 436, N-{5-[(3,4-dimethoxybenzyl)amino]-1,3,4-thiadiazol-2-yl}-3-nitrobenzamide] to `O=C(Nc1nnc(NCc2ccc(Cl)c(Cl)c2)s1)c1cccc([N+](=O)[O-])c1` [compound 462, N-{5-[(3,4-dichlorobenzyl)amino]-1,3,4-thiadiazol-2-yl}-3-nitrobenzamide], the inhibition at 25 µM falls from 22.8% to 20.5%.

Going from `O=C(Nc1nnc(NCCc2ccccc2)s1)c1cc(F)cc(F)c1` [compound 437, 3,5-difluoro-N-[5-(phenethylamino)-1,3,4-thiadiazol-2-yl]benzamide] to `O=C(Nc1nnc(NCCc2c[nH]c3ccccc23)s1)c1cc(F)cc(F)c1` [compound 458, 3,5-difluoro-N-(5-{[2-(1H-indol-3-yl)ethyl]amino}-1,3,4-thiadiazol-2-yl)benzamide], the inhibition at 25 µM falls from 22.7% to 20.7%.

Going from `O=C(/C=C/c1ccccc1Cl)Nc1nnc(NCC2CCCCC2)s1` [compound 439, (E)-3-(2-chlorophenyl)-N-{5-[(cyclohexylmethyl)amino]-1,3,4-thiadiazol-2-yl}-2-propenamide] to `O=C(/C=C/c1ccccc1Cl)Nc1nnc(NCc2cccc3ccccc23)s1` [compound 443, (E)-3-(2-chlorophenyl)-N-{5-[(1-naphthylmethyl)amino]-1,3,4-thiadiazol-2-yl]-2propenamide], the inhibition at 25 µM falls from 22.5% to 22.1%.

Going from `CC(C)c1cc(C(C)C)c(C(=O)Nc2nnc(NC[C@@H]3CCC4CC3C4(C)C)s2)c(C(C)C)c1` (stereo partly drawn) [compound 440, N-[5-({[(2R)-6,6-dimethylbicyclo[3.1.1]hept-2-yl]methyl}amino)-1,3,4-thiadiazol-2-yl]-2,4,6-triisopropylbenzamide] to `CC(C)c1cc(C(C)C)c(C(=O)Nc2nnc(NCc3ccco3)s2)c(C(C)C)c1` [compound 442, N-{5-[(2-furylmethyl)amino]-1,3,4-thiadiazol-2-yl}-2,4,6-triisopropylbenzamide], the inhibition at 25 µM falls from 22.5% to 22.3%.

Going from `CCCCCCCCCCCNc1nnc(NC(=O)c2c(C(C)C)cc(C(C)C)cc2C(C)C)s1` [compound 441, 2,4,6-triisopropyl-N-[5-(undecylamino)-1,3,4-thiadiazol-2-yl]benzamide] to `CCCCC(CC)CNc1nnc(NC(=O)c2ccc(Cl)c(Cl)c2)s1` (stereo not drawn) [compound 461, 3,4-dichloro-N-{5-[(2-ethylhexyl)amino]-1,3,4-thiadiazol-2-yl}benzamide], the inhibition at 25 µM falls from 22.5% to 20.6%.

Going from `O=C(Nc1nnc(NCCc2cccs2)s1)c1ccc(F)cc1F` [compound 445] to `O=C(Nc1nnc(NCc2ccc(F)cc2)s1)c1cc(F)cc(F)c1` [compound 451, 3,5-difluoro-N-{5-[(4-fluorobenzyl)amino]-1,3,4-thiadiazol-2-yl}benzamide], the inhibition at 25 µM falls from 21.9% to 21.4%.

Compared with `NS(=O)(=O)c1ccc(CCNc2nnc(NC(=O)c3ccc(C(F)(F)F)cc3)s2)cc1` [compound 446, N-(5-{[4-(aminosulfonyl)phenethyl]amino}-1,3,4-thiadiazol-2-yl)-4-(trifluoromethyl)benzamide], `Cc1ccc(C(=O)Nc2nnc(NCc3cccc4ccccc34)s2)cc1` [compound 457, 4-methyl-N-{5-[(1-naphthylmethyl)amino]-1,3,4-thiadiazol-2-yl}benzamide] is lower in inhibition at 25 µM: 21.8% for the first, 20.7% for the second.

Compared with `CCSCCNc1nnc(NC(=O)c2ccc(Cl)c(Cl)c2)s1` [compound 447, 3,4-dichloro-N-(5-{[2-(ethylsulfanyl)ethyl]amino]-1,3,4-thiadiazol-2-yl)benzamide], `CCSCCNc1nnc(NC(=O)c2cc3ccccc3s2)s1` [compound 466, N-(5-{[2-(ethylsulfanyl)ethyl]amino}-1,3,4-thiadiazol-2-yl)-1-benzothiophene-2-carboxamide] is lower in inhibition at 25 µM: 21.6% for the first, 20.1% for the second.

Compared with `O=C(Nc1nnc(NCCc2c[nH]cn2)s1)c1c(Cl)cccc1Cl` [compound 448, 2,6-dichloro-N-(5-{[2-(1H-imidazol-4-yl)ethyl]amino}-1,3,4-thiadiazol-2-yl)benzamide], `COc1ccccc1C(=O)Nc1nnc(NCc2ccc(Cl)c(Cl)c2)s1` [compound 452, N-{5-[(3,4-dichlorobenzyl)amino]-1,3,4-thiadiazol-2-yl}-2-methoxybenzamide] is lower in inhibition at 25 µM: 21.6% for the first, 21.3% for the second.

First: O=C(Nc1nnc(NCCN2CCOCC2)s1)c1cc2ccccc2s1 [compound 453, N-{5-[(2-morpholinoethyl)amino]-1,3,4-thiadiazol-2-yl}-1-benzothiophene-2-carboxamide]
Second: O=C(Nc1nnc(NCCN2CCOCC2)s1)c1cccc([N+](=O)[O-])c1 [compound 469, N-{5-[(2-morpholinoethyl)amino]-1,3,4-thiadiazol-2-yl}-3-nitrobenzamide]
The inhibition at 25 µM of the first is higher: 21.2% for the first, 20.1% for the second.

`O=C(Nc1nnc(NC2CCN(Cc3ccccc3)CC2)s1)c1ccc(Br)cc1` [compound 455, N-{5-[(1-benzyl-4-piperidinyl)amino]-1,3,4-thiadiazol-2-yl}-4-bromobenzamide] and `O=C(Nc1nnc(NC2CCN(Cc3ccccc3)CC2)s1)c1ccc([N+](=O)[O-])o1` [compound 456, N-{5-[(1-benzyl-4-piperidinyl)amino]-1,3,4-thiadiazol-2-yl}-5-nitro-2-furamide] are the same in inhibition at 25 µM: 20.8% for the first, 20.8% for the second.

Compared with `O=C(Nc1nnc(NCc2ccc3c(c2)OCO3)s1)c1ccc(I)cc1` [compound 459, N-{5-[(1,3-benzodioxol-5-ylmethyl)amino]-1,3,4-thiadiazol-2-yl}-4-iodobenzamide], `N#Cc1ccc(C(=O)Nc2nnc(NCc3ccc4c(c3)OCO4)s2)cc1` [compound 471, N-{5-[(1,3-benzodioxol-5-ylmethyl)amino]-1,3,4-thiadiazol-2-yl}-4-cyanobenzamide] is lower in inhibition at 25 µM: 20.7% for the first, 20% for the second.

Compared with `CCOc1ccc2ccccc2c1C(=O)Nc1nnc(NCCNC(C)=O)s1` [compound 463, N-(5-{[2-(acetylamino)ethyl]amino}-1,3,4-thiadiazol-2-yl)-2-ethoxy-1-naphthamide], `O=C(Nc1nnc(NCC2CC2)s1)c1ccc(I)cc1` [compound 470, N-{5-[(cyclopropylmethyl)amino]-1,3,4-thiadiazol-2yl}-4-iodobenzamide] is lower in inhibition at 25 µM: 20.3% for the first, 20% for the second.

Going from `N#Cc1ccc(C(=O)Nc2nnc(NCCN3CCOCC3)s2)cc1` [compound 464, 4-cyano-N-{5-[(2-morpholinoethyl)amino]-1,3,4-thiadiazol-2-yl}benzamide] to `CN1CCN(CCCNc2nnc(NC(=O)c3ccc(I)cc3)s2)CC1` [compound 467], the inhibition at 25 µM falls from 20.3% to 20.1%.

`O=C(Nc1nnc(NC2CCCc3ccccc32)s1)c1cc(F)cc(F)c1` (stereo not drawn) [compound 468, 3,5-difluoro-N-[5-(1,2,3,4-tetrahydro-1-naphthalenylamino)-1,3,4-thiadiazol-2-yl]benzamide] was tested, and the inhibition at 25 µM was 20.1%.

For `O=C(Nc1nnc(NC2CCN(Cc3ccccc3)CC2)s1)c1ccc(S(=O)(=O)F)cc1` [compound 460, 4-[({5-[(1-benzyl-4-piperidinyl)amino]-1,3,4-thiadiazol-2-yl}amino)carbonyl]benzenesulfonyl fluoride], the “% Inhib” value was 20.7%.

Source: patent US6150385A, “1,3,4-thiadiazoles useful for the treatment of CMV infections” (Pharmacia & Upjohn Company, priority 1999, dated 2000)
